Experimental data from ChEMBL document CHEMBL3596111, “Synthesis and evaluation of the anti-nociceptive and anti-inflammatory activity of 4-aminoquinoline derivatives” (Bioorg Med Chem, 2015).
Active and inactive are the calls of the source. The rule behind the calls is not given here.

Tests used:
Mus musculus [1] = assay: Anti-nociceptive activity in Swiss mouse assessed as reduction in paw licking response during inflammatory phase at 10 umol/kg, ip dosed 40 mins before formalin injection; assay type: functional
Mus musculus [2] = assay: Anti-inflammatory activity in Swiss mouse assessed as inhibition of zymosan-induced peritonitis by measuring reduction in leukocyte migration at 10 umol/kg, ip administered 30 min before the zymosan injection; assay type: functional
Mus musculus [3] = assay: Anti-nociceptive activity in ip dosed Swiss mouse assessed as inhibition of acetic acid-induced writhing dosed 40 mins before acetic acid injection and measured over 25 mins; assay type: functional; conditions: read-out: ID50 (the source's name)
Mus musculus [4] = assay: Anti-nociceptive activity in ip dosed Swiss mouse assessed as inhibition of acetic acid-induced writhing dosed 40 mins before acetic acid injection and measured over 25 mins relative to control; assay type: functional
Mus musculus [5] = assay: Anti-nociceptive activity in Swiss mouse assessed as reduction in time spent in licking injected paw during neurogenic phase at 100 umol/kg, ip dosed 40 mins before formalin injection; assay type: functional, organism-based
Mus musculus [6] = assay: Anti-nociceptive activity in Swiss mouse assessed as reduction in time spent in licking injected paw during inflammatory phase at 100 umol/kg, ip dosed 40 mins before formalin injection; assay type: functional, organism-based
Rattus norvegicus [7] = assay: Anti-inflammatory activity in Wistar rat model complete Freund's adjuvant-induced arthritis assessed as reduction in paw edema at 5 umol/kg, ip dosed from day 14 to day 21 after immunization and measured on day 16; assay type: functional, organism-based
Mus musculus [8] = assay: Anti-inflammatory activity in Swiss mouse assessed as inhibition of zymosan-induced peritonitis by measuring reduction in leukocyte migration at 100 umol/kg, ip administered 30 min before the zymosan injection; assay type: functional
Mus musculus [9] = assay: Anti-nociceptive activity in Swiss mouse assessed as reduction in paw licking response during inflammatory phase at 100 umol/kg, ip dosed 40 mins before formalin injection; assay type: functional
Rattus norvegicus [10] = assay: Anti-inflammatory activity in Wistar rat model complete Freund's adjuvant-induced arthritis assessed as reduction in paw edema at 100 umol/kg, ip dosed from day 14 to day 21 after immunization and measured on day 17; assay type: functional, organism-based
Rattus norvegicus [11] = assay: Anti-inflammatory activity in Wistar rat model complete Freund's adjuvant-induced arthritis assessed as reduction in paw edema at 100 umol/kg, ip dosed from day 14 to day 21 after immunization and measured on until day of sacrifice; assay type: functional, organism-based
Rattus norvegicus [12] = assay: Hepatotoxicity in Wistar rat model complete Freund's adjuvant-induced arthritis assessed as effect on serum ALT level at 100 umol/kg, ip dosed from day 14 to day 21 after immunization; assay type: toxicity, organism-based; conditions: in vivo
Rattus norvegicus [13] = assay: Toxicity in Wistar rat model complete Freund's adjuvant-induced arthritis assessed as effect on spleen weight at 100 umol/kg, ip dosed from day 14 to day 21 after immunization; assay type: organism-based; conditions: in vivo
Rattus norvegicus [14] = assay: Hepatotoxicity in Wistar rat model complete Freund's adjuvant-induced arthritis assessed as effect on serum AST level at 100 umol/kg, ip dosed from day 14 to day 21 after immunization; assay type: toxicity, organism-based; conditions: in vivo
Rattus norvegicus [15] = assay: Renal toxicity in Wistar rat model complete Freund's adjuvant-induced arthritis assessed as effect on creatinine levels at 100 umol/kg, ip dosed from day 14 to day 21 after immunization; assay type: organism-based; conditions: in vivo
Rattus norvegicus [16] = assay: Renal toxicity in Wistar rat model complete Freund's adjuvant-induced arthritis assessed as effect on urea levels at 100 umol/kg, ip dosed from day 14 to day 21 after immunization; assay type: organism-based; conditions: in vivo

Row | Compound | ED50 (Mus musculus [3]) [µmol/kg] | Emax (Mus musculus [4]) [%] | Activity (Mus musculus [5]) | Activity (Mus musculus [6]) | also measured
1 | COc1ccc2c(c1)c(CC(=O)O)c(C)n2C(=O)c1ccc(Cl)cc1 [INDOMETHACIN] |  |  |  |  | inhibition in vivo at 10 µmol/kg (Mus musculus [1]): 50.8%; inhibition in vivo at 10 µmol/kg (Mus musculus [2]): 75.8%
2 | NCCNCCNc1ccnc2cc(Cl)ccc12 | 39.4 | 86.4 | Active | Active | 
3 | C[C@@H]1C[C@H]2[C@@H]3CCC4=CC(=O)C=C[C@]4(C)[C@@]3(F)[C@@H](O)C[C@]2(C)[C@@]1(O)C(=O)CO |  |  |  |  | Activity (Rattus norvegicus [7]): Active
4 | NCCNCCNc1cc(C(F)(F)F)nc2ccccc12 | 26.6 | 95.1 | Active | Active | 
5 | Cc1c(N(C)CS(=O)(=O)O)c(=O)n(-c2ccccc2)n1C [METAMIZOLE] | 36.8 | 74.8 |  |  | 
6 | NCCNCCNc1ccnc2cc(C(F)(F)F)ccc12 | 15.3 | 96.7 | Active | Active | inhibition in vivo at 100 µmol/kg (Mus musculus [8]): 59.1%; inhibition in vivo at 100 µmol/kg (Mus musculus [9]): 89.6%; Activity (Rattus norvegicus [10]): Active; Activity (Rattus norvegicus [11]): Active; Activity (Rattus norvegicus [12]): Non-toxic; Activity (Rattus norvegicus [13]): Non-toxic; Activity (Rattus norvegicus [14]): Non-toxic; Activity (Rattus norvegicus [15]): Non-toxic; Activity (Rattus norvegicus [16]): Non-toxic
